Assay results as given in ChEMBL document CHEMBL1131886 (Bioorg Med Chem Lett, 1999).

Columns and labels:
[1] = target: T1, 5-hydroxytryptamine receptor 1A (Homo sapiens, UniProt P08908); experiment: Stimulation of [35S]- GIPyS binding to cloned human 5-hydroxytryptamine 1A receptor stably expressed in HeLa cells; format: cell-based
T1 sequence (P08908 whole entry): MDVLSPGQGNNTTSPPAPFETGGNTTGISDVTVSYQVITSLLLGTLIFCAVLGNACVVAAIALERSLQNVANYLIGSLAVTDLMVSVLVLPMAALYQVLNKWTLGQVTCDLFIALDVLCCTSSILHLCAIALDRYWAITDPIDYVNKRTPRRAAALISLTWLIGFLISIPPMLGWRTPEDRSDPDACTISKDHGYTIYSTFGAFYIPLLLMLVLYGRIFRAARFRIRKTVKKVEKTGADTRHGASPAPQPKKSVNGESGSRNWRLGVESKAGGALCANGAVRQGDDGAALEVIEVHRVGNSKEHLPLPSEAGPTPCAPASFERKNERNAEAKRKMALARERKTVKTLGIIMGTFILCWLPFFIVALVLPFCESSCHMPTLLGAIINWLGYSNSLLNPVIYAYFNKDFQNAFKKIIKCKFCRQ

[2] = target: T2, 5-hydroxytryptamine receptor 1A (Homo sapiens) (UniProt P08908); experiment: Percent efficacy against cloned human 5-hydroxytryptamine 1A receptor normalized to the maximal 5-HT response; format: functional
T2 sequence (whole entry): T1 sequence (P08908 whole entry)

[3] = target: T1, 5-hydroxytryptamine receptor 1A; experiment: Displacement of specific [3H]- 5-HT binding to cloned human 5-hydroxytryptamine 1A receptor stably expressed in HeLa cells; format: cell-based
[4] = target: Sodium-dependent serotonin transporter (Rattus norvegicus, UniProt P31652); experiment: Displacement of specific [3H]- citalopram binding to 5-HT uptake site in rat whole cortex
[5] = target: T2, 5-hydroxytryptamine receptor 1A (Homo sapiens); experiment: Percent efficacy against human 5-hydroxytryptamine 1A receptor relative to maximal 5-HT response; format: functional
[6] = target: T1, 5-hydroxytryptamine receptor 1A; experiment: Stimulation of [35S]- […] binding to cloned human 5-hydroxytryptamine 1A receptor stably expressed in HeLa cells; Inverse; format: cell-based

Sequence of Sodium-dependent serotonin transporter (P31652 whole entry): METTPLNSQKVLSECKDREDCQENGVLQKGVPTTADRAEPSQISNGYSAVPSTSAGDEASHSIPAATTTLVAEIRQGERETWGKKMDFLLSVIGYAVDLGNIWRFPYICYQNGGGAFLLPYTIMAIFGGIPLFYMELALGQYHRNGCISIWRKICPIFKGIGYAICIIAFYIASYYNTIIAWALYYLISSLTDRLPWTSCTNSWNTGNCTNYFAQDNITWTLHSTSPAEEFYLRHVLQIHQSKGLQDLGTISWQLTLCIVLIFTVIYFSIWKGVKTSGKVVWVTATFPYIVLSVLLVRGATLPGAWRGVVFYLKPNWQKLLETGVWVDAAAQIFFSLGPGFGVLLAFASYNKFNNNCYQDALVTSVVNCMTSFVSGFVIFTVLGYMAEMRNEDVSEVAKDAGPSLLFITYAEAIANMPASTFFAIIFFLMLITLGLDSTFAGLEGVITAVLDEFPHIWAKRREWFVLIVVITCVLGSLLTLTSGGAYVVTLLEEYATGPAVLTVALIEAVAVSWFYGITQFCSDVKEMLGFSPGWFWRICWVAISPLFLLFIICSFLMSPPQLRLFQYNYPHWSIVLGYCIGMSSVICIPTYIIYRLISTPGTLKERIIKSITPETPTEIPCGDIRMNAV

SMILES | EC50 [1] [nM] | Efficacy [2] [%] | Ki [3] [nM] | Ki [4] [nM] | Efficacy [5] [%] | EC50 [6]
O=C1CCc2c(F)ccc(OCC(O)CN3CCC4(CC3)OCc3c4ccc4ccccc34)c21 (stereo not drawn) | 3.5 | 65 | 2.3 | 45 | – | –
OC(COCc1ccccc1)CN1CCC2(CC1)OCc1c2ccc2ccccc12 (stereo not drawn) | 31 | – | 2.2 | 83 | 108 | –
c1ccc(CCCCN2CCC3(CC2)OCc2c3ccc3ccccc23)cc1 | > 10000 | – | 72 | 28 | – | –
CC(C)NCC(O)COc1cccc2[nH]ccc12 (stereo not drawn) | – | – | – | – | 36 | –
O[C@H](COc1ccccc1F)CN1CCC2(CC1)OCc1c2ccc2ccccc12 | 1.1 | – | 1 | 52 | 100 | –
OC(COc1ccc(F)c2c1OCCC2)CN1CCC2(CC1)OCc1c2ccc2ccccc12 (stereo not drawn) | > 10000 | – | 2.8 | 49 | – | –
O[C@H](COc1ccccc1)CN1CCC2(CC1)OCc1c2ccc2ccccc12 | 1.2 | – | 1.1 | 50 | 81 | –
OC(CCc1ccccc1)CN1CCC2(CC1)OCc1c2ccc2ccccc12 (stereo not drawn) | 37 | – | 8.3 | 10 | 87 | –
OC(COc1cc(F)cc2c1OCCC2)CN1CCC2(CC1)OCc1c2ccc2ccccc12 (stereo not drawn) | – | – | 5.5 | 72 | – | Inverse agonist
O[C@@H](COc1ccccc1F)CN1CCC2(CC1)OCc1c2ccc2ccccc12 | 21 | – | 6 | 120 | 92 | –
CCc1cccc(OC[C@@H](O)CN2CCC3(CC2)OCc2c3ccc3ccccc23)c1 | 3.3 | – | 1.7 | 87 | 61 | –
